# Measured values taken from patent publication US20240279687A1, “PEPTIDE NUCLEIC ACIDS FOR SPATIOTEMPORAL CONTROL OF CRISPR-CAS BINDING” (Yale University, priority 2021, published 2024).
# Assays:
# dCas9-p300 / MYOD1 sgRNA [1] = target: T1, dCas9-p300 / MYOD1 sgRNA (UniProt Q09472+Q99ZW2, D10A/H840A); test: dCas9-p300 MYOD1 expression in stable K562 cells, RT-qPCR; type: cell-based, human; conditions: 250 pmol PNA
# T1 construct: P2A-PuroR (C)
# Description: Stable K562-pLV-dCas9-p300 line was established from lentivirus generated from pLV-dCas9-p300-P2A-PuroR plasmid (Addgene: #83889) and Invitrogen Virapower packaging plasmids in 293FT cells (Invitrogen, R70007) and puromycin selection (2 μg/mL, Gibco). Lines were further transduced with lentivirus similarly generated with pLV-U6-UbC-eGFP-P2A-Bsr plasmids (Addgene: #83925) containing MYOD promoter targeted sgRNA sequences with blasticidin selection (5 μg/mL, Gibco, A1113903, Table 4).
# 6×10^6 stable dCas9-p300/MYOD1 sgRNA expressing K562 cells (Addgene #83889, Addgene #83925), were nucleofected with 250 pmol of specified PNA (non-targeting BFP or POU5F1) using a Lonza 4D nucleofector. At each specified time point 500 μL of cells were removed from each condition flask, spun down, and frozen. […] Expression relative to the untreated parent K562 line was recorded as fold-change and calculated using the ΔΔCT method. […]
# For RNA extractions 0.5×10^6 K562 cells were spun down, washed once with PBS, homogenized using QIAshredder columns (QIAGEN 79656) and processed using QIAGEN RNeasy mini kits (74106) before eluting in 50 μL of water. […] Expression relative to the untreated K562 parent line was recorded as fold-change and calculated from averaged CT values using the ΔΔCT method.
# dCas9-p300 / MYOD1 sgRNA [2] = target: T1, dCas9-p300 / MYOD1 sgRNA; test: ChIP-qPCR of H3K27ac occupancy at the MYOD1 promoter region; type: cell-based, human; conditions: 24 and 48 hours after PNA treatment (250 pmol), subsequent increase at 240 hours
# Description: K562 cells (6×10^6 cells) were diluted to 0.4×10^6 cells/mL and cross-linked with a final concentration of 1% formaldehyde (Sigma-Aldrich, 252549) for each IP. Chromatin was prepared and sheared according to manufacturer protocol using SimpleChIP Enzymatic Chromatin IP Kit (Cell Signaling, #9003) and QSONICA Q800R3 sonicator for nuclear lysis. For each condition, 10 μg of chromatin was incubated with 3 μg of H3K27ac antibody (abcam ab4729) rotating overnight at 4° C. Chromatin was incubated with 30 μL of protein G magnetic beads (Cell Signaling, #70024) and washed, eluted, reverse cross-linked, and purified according to manufacturer protocol. ChIP-qPCR reactions were conducted in technical triplicate for 2% input and IP samples using a StepOnePLUS Real-Time PCR System (Applied Biosystems), SimpleChIP Universal qPCR Mastermix (Cell Signaling, #88989), and MYOD1 target specific primers (Table 8). Percent occupancy values were calculated by percent input method from 2% input samples for each replicate.
substance,measurement,setting,value
"KKK-GCACGCCCTTTCCAAACCT-KKK (Three lysine residues flank each end, further chemistry not given here) [MYOD1 p300 PNA]",time by which epigenetic-mediated MYOD1 gene upregulation was driven down,dCas9-p300 / MYOD1 sgRNA [1],≤ 24 h
same,time by which expression returned to the fully upregulated state,dCas9-p300 / MYOD1 sgRNA [1],≤ 168 h
same,H3K27ac occupancy at the MYOD1 promoter region,dCas9-p300 / MYOD1 sgRNA [2],significant decrease
